“Also recorded” adds a separate entry of the source.
Tests used:
[1] = test system: DLBCL models harboring mutant CCND3 (PEST-domain mutation); test: Cell viability by Cell Titer Glo (cellular ATP), 72 hours, cells containing mutant CCND3; format: cell-based, human; settings: 10 μM to 1.5 nM
Experimental: Using the pharmacologic characterization of the COLE cell lines, cell lines containing CCND3 mutations were tested for CDKi sensitivity. DOHH-2, NU-DHL-1, SEM, SU-DHL-4, SU-DHL-6, and SU-DHL-10 cells were purchased from Deutsche Sammlung von Mikroorganismen and Zellkulturen GmbH (DSMZ). DB and Pfeiffer cells were purchased from American Type Culture Collection (ATCC). A4/FUK cells were purchased from Health Science Research Resources Bank (HSRRB). These cells were cultured in RPMI 1640 medium (ATCC) supplemented with either 10% (A4/FUK, DB, DOHH-2, Pfeiffer, and SEM cells) or 20% (NU-DHL-1, SU-DHL-4, SU-DHL-6, and SU-DHL-10) fetal bovine serum (Gibco) and incubated at 37° C./5% CO2. For screening, cells were seeded in 80 μl of medium in 96-well plates (Costar #3904) at 10,000 (DB, DOHH-2, NU-DHL-1, SEM, SU-DHL-4, SU-DHL-6, and SU-DHL-10), 15,000 (A4/FUK) or 20,000 (Pfeiffer) cell densities and incubated overnight prior to compound addition. A4/FUK, DOHH-2, NU-DHL-1, SU-DHL-10, DB, Pfeiffer, SU-DHL-4 and SU-DHL-6 cells are diffuse large B cell lymphoma (DLBCL) cell lines. SEM cells are acute lymphoblastic B cell leukemia cells.
(§1) Compound stock (5×) was freshly prepared in the appropriate culture medium, and manually added to the plates by electronic multichannel pipette. In a minimum of three replicate wells, the number & viability of cells at the time of compound addition, as well as single agent effects after 72 hours, was assessed by quantification of cellular ATP levels via Cell Titer Glo (Promega, Madison, Wis.) according to the manufacturer's protocol. Day 0 subtracted-EC^50s were calculated using standard four-parametric curve fitting (XLFit, model 205).
CDKi(1)-CDKi(3) were synthesized at Novartis Pharma AG, and compound stocks were prepared in DMSO at a final concentration of 10 mM. Working stocks were serially diluted in the appropriate cell culture medium in 3-fold increments to achieve final assay concentrations ranging from 10 μM to 1.5 nM.

[2] = test system: DLBCL models harboring wild-type CCND3; test: Cell viability by Cell Titer Glo (cellular ATP), 72 hours, cells containing wild type CCND3; format: cell-based, human; settings: 10 μM to 1.5 nM
Experimental: Using the pharmacologic characterization of the COLE cell lines, cell lines containing CCND3 mutations were tested for CDKi sensitivity. DOHH-2, NU-DHL-1, SEM, SU-DHL-4, SU-DHL-6, and SU-DHL-10 cells were purchased from Deutsche Sammlung von Mikroorganismen and Zellkulturen GmbH (DSMZ). DB and Pfeiffer cells were purchased from American Type Culture Collection (ATCC). A4/FUK cells were purchased from Health Science Research Resources Bank (HSRRB). These cells were cultured in RPMI 1640 medium (ATCC) supplemented with either 10% (A4/FUK, DB, DOHH-2, Pfeiffer, and SEM cells) or 20% (NU-DHL-1, SU-DHL-4, SU-DHL-6, and SU-DHL-10) fetal bovine serum (Gibco) and incubated at 37° C./5% CO2. […]
as §1, with “205). […]” for “205).”

Compound	sensitivity / cell viability of cells containing mutant CCND3 [1]	sensitivity / cell viability of cells containing wild type CCND3 [2]
CC(=O)c1c(C)c2cnc(Nc3ccc(N4CCNCC4)cn3)nc2n(C2CCCC2)c1=O [CDKi(2), PD0332991, reference compound]	more sensitive; also recorded: sensitivity	
CS(=O)(=O)N1CCC(NC(=O)c2[nH]ncc2NC(=O)c2c(Cl)cccc2Cl)CC1 [CDKi(3)]	more sensitive to the pan-CDK inhibitor than to the specific CDK 4/6 inhibitors; also recorded: insensitivity	more sensitive to the pan-CDK inhibitor than to the specific CDK 4/6 inhibitors; also recorded: insensitivity
CN(C)C(=O)c1cc2cnc(Nc3ccc(N4CCNCC4)cn3)nc2n1C1CCCC1 [CDKi(1)]	increased sensitivity	

— patent US20180066322A1, “BIOMARKERS ASSOCIATED WITH CDK INHIBITORS” (NOVARTIS AG, priority 2012, published 2018)
